From patent US20240317683A1, “METHODS OF TREATING MOOD DISORDERS” (priority 2020, published 2024) come the findings set out here.

Entries after “also recorded” stand apart in the source; their conditions may differ. Counter-ions that a name gives are not always drawn.

Series [1] in a line: Pharmacokinetics in rats, brain. The format is in vivo, Sprague Dawley rats. The note with it: rat brain, SC; for Cmax / Tmax / half-life: male, Sprague Dawley. As for the experimental part: Animals. Male Sprague Dawley rats, aged 8-12 weeks, were used in these studies. Four rats were housed in each cage. Temperature and humidity were maintained at 22±3° C. and 30-70%, respectively, and illumination was controlled to give a 12 h light and 12 h dark cycle. Temperature and humidity were recorded by an auto-controlled data logger system. All animals were provided laboratory rodent diet and were fasted for 4 h pre-dose and 2 h post-dose. Reverse osmosis water treated with ultraviolet light was provided ad libitum. Animals were randomly assigned to treatment groups.
Drugs. Compounds 4 and 5 were prepared as described above. Compound 6 was commercially obtained. Test compounds were used as the hydrogen fumarate (6) or hydrochloride (4 and 5) salts and were dissolved in a vehicle consisting of normal saline. They were then administered subcutaneously (SC) at a dose of 1 or 10 mg/kg (calculated based on the free base) and at a volume of 5 mL/kg body weight.
Sample Collection and Bioanalysis. Blood samples (approximately 120 μL) were collected under light isoflurane anesthesia (Surgivet®) from the retro orbital plexus at 0.08, 0.25, 0.5, 1, 2, 4, 8, and 24 h (4 animals per time point). Immediately after blood collection, plasma was harvested by centrifugation at 4,000 rpm for 10 min at 4° C. and samples were stored at −70±10° C. until bioanalysis. Following blood collection, animals were immediately sacrificed, the abdominal vena-cava was cut open, and the whole body was perfused from the heart using 10 mL of normal saline, and brain samples were collected from all animals. After isolation, brain samples were rinsed three times in ice-cold normal saline (for 5-10 seconds/rinse using ˜5-10 mL normal saline in disposable petri dish for each rinse) and dried on blotting paper. Brain samples were homogenized using ice-cold phosphate-buffered saline (pH 7.4). Total homogenate volume was three times the tissue weight. All homogenates were stored at −70±10° C. until bioanalysis. For bioanalysis, 25 μL aliquots of plasma/brain study samples or spiked plasma/brain calibration standards were added to individual pre-labeled micro-centrifuge tubes followed by 100 μL of an internal standard solution (glipizide, 500 ng/ml in acetonitrile) except for blanks, where 100 μL of acetonitrile was added. Samples were vortexed for 5 minutes and then centrifuged for 10 minutes at 4,000 rpm at 4° C. Following centrifugation, 100 μL of each clear supernatant was transferred to a 96 well plate and analyzed with a fit-for-purpose LC-MS/MS method, with authentic samples of each analyte used for calibration and identification.
Data Analysis. Pharmacokinetic parameters were estimated using the non-compartmental analysis tool of Phoenix® WinNonlin software (Ver 8.0).

Series [2] concerns C57BL/6 mice. The series is described as follows: Head twitch response (HTR) in mice. The format is in vivo. The conditions noted are these: for Average HTR: 20 mins; for maximal effect in HTR: SC, maximal over tested doses. As for the experimental part:
Animals. Adult male C57BL/6 mice, aged 8 weeks (body weight 20-25 g) were used in these experiments. Animals were housed under controlled temperatures and 12-hour light/dark cycles (lights on between 07:00-19:00 h), with ad libitum food and water. The protocol was approved by the Eurofins Advinus Institutional Animal Care and Use Committee. This study was carried out in strict accordance with the recommendations in the Guide for the Care and Use of Laboratory Animals of the National Institutes of Health. All efforts were made to minimize suffering.
Drugs and Drug administration. Compounds 3 and 4 were prepared as described above. All other compounds were commercially obtained. Test compounds were used as the hydrogen fumarate (1 and 2) or hydrochloride (DOI, 3, and 4) salts. Drugs were dissolved in a vehicle consisting of normal saline and administered subcutaneously (SC) in a volume of 10 ml/kg. Test compounds were administered at 5 doses per compound (0.1 to 100 mg/kg, as indicated, calculated based on the free base) using N=6 animals/group. […] For blockade experiments, MDL100907 (0.1 mg/kg, SC) was administered 10 mins prior to the test compound.
Procedure. Mice were administered one dose of a test drug (or vehicle) s.c. and immediately placed into a small open field for behavioral observation. Animals were observed continuously for 20 mins and the number of HTRs were counted by an observer blind to the treatment condition.
Statistical analysis. The data points shown in Table 11 are the mean ±standard error of the mean (SEM). Analysis was performed using GraphPad Prism 9.

The target in the next series is CYP2C9 (Homo sapiens (Human), UniProt P11712). Nature of the series: CYP inhibition in human liver microsomes, CYP2C9. The format is in vitro ADME. The note with it: for inhibition at 10 min, 10 µM: both sexes, human, pooled human liver microsomes, pH 7.4, probe diclofenac (5 μM), HLM, diclofenac substrate, read-out: CYP 2C9 % Inhibition at 10 μM. For orientation: Microsomes from liver hold many membrane-bound enzymes, among them those of drug oxidation.

Series [3] deals with C57BL/6 mice. The series is described as follows: Conditioned place preference in mice. The format is in vivo. The note with it: SC, abuse liability model, vs. vehicle; hydrochloride. As for the experimental part: Animals. Male C57BL/6 mice, 5-8 weeks of age, (body weight 25-30 g; Envigo, Indianapolis, IN, USA) were housed 5 per polycarbonate tub with soft bedding in a temperature-and humidity-controlled vivarium. Mice were maintained under a 12-h light/dark cycle with lights on at 06:00. Food and water were available ad libitum. Animals acclimated to the vivarium for 1 week prior to experimental manipulations.
Drugs and Drug Administration. Compound 4 was prepared as described above. All other compounds were commercially obtained. Compound 4 and saline vehicle were administered subcutaneously (SC), with doses calculated based on the HCl salt, while the positive control oxycodone was administered intraperitoneally (IP), with the dose calculated based on the HCl salt. […]
Conditioned Place Preference. Reward and/or aversion was assessed in conditioned place preference chambers (Model MED-CPP-3013; Med Associates, St. Albans, VT). […]
Group size was n=10 per treatment. […] Final drug preference was assessed in a 15-minute post-conditioning trial and was calculated by subtracting the time in the drug-paired compartment at baseline from the time in the drug-paired compartment post-conditioning, with positive values reflecting reward and negative values reflecting aversion.
For all trials, time spent in chambers as well as movement was quantified by infrared photobeam detectors and calculated by Med-PC IV software. […]

Sequence of CYP2C9 (P11712 whole entry, looked up): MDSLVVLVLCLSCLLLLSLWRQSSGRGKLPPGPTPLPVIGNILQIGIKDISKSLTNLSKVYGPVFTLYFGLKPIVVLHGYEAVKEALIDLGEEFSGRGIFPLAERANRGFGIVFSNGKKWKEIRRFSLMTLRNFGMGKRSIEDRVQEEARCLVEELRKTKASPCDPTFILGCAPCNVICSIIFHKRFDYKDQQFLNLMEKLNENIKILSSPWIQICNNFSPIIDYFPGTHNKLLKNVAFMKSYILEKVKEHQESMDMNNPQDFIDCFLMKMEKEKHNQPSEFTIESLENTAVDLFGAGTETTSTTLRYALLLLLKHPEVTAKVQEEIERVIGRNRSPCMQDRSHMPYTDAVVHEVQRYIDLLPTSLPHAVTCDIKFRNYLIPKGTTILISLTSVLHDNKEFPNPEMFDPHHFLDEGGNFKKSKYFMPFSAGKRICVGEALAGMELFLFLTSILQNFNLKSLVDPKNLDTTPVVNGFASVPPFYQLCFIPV

The Cmax is the peak of the concentration-time curve. Broadly, the Tmax is the time at which the peak concentration occurs. Usually half-life stands for how long it takes for the measured level to halve. Lower therefore signals fast loss. Turning to `CN(C)CCc1c[nH]c2ccc(F)cc12` [Compound 5, 2-(5-fluoro-1H-indol-3-yl)-N,N-dimethylethan-1-amine hydrochloride], in series [1] (10 mg/kg), the peak level (Cmax) was 275 ng/g, the Tmax worked out at 15 min, the half-life was 23.4 min and the AUC0-last was found to be 93.99 ng·h/g.

One may read the inhibition as the share of the control response that was lost under treatment. On to `CCCN(CC)CCc1c[nH]c2ccccc12` [Compound 1, ethylpropyltryptamine], for which the “Average HTR” value in the series on C57BL/6 mice [2] (1 mg/kg SC) is 14.667; in the series on C57BL/6 mice [2] (10 mg/kg SC), 8.000; in the series with C57BL/6 mice [2] (100 mg/kg SC), 4.500. In addition, the “maximal effect in HTR” value in the series with C57BL/6 mice [2] came to 14.7 head twitches/20 min. For the same compound, on CYP2C9, the inhibition at 10 min, 10 µM stood at 0.1%.

One may read the IC50 as the concentration that inhibits the measured activity by half. A high value points to lower potency. As for `CCN(C)CCc1c[nH]c2cccc(O)c12` [Compound 6], in series [1] (10 mg/kg), the Cmax is 6160 ng/g, the Tmax was determined as 120 min, the half-life is 125 min and the AUC0-last is 30,638.13 h*ng/g. Besides, on CYP2C9, the IC50 is greater than 50 µM.

Take `CCN(C)CCc1c[nH]c2ccc(F)cc12` [Compound 4, N-ethyl-2-(5-fluoro-1H-indol-3-yl)-N-methylethan-1-amine hydrochloride]: the Cmax in series [1] (1 mg/kg) turned out to be 188 ng/g; in series [1] (10 mg/kg), 2480 ng/g. Moreover, the time of peak concentration (Tmax) came to 15 min in series [1] (1 mg/kg) and 60 min in series [1] (10 mg/kg). The figures for the half-life in series [1] (1 mg/kg) and in series [1] (10 mg/kg) were 23.4 min and 31.2 min, respectively. Also, the AUC0-last in series [1] (1 mg/kg) is 197.70 ng·h/g; in series [1] (10 mg/kg), 4,710.96 h*ng/g. For the same compound, the “Average HTR” value is 5.00 in the series with C57BL/6 mice [2] (0.1 mg/kg SC), 18.333 in the series on C57BL/6 mice [2] (1 mg/kg SC) and 9.333 with C57BL/6 mice [2] (10 mg/kg SC). The “total number of HTR counts vs. vehicle (FIG. 2)” value with C57BL/6 mice [2] (Cmp 4 alone, Dunnett's test, P<0.0001) was “significantly different from vehicle”. Besides, in the series with C57BL/6 mice [2], the “maximal effect in HTR” value is 27.67 head twitches/20 min. Besides, the “preference for the drug-paired compartment” value in the series on C57BL/6 mice [3] is given as “did not induce any significant preference; also recorded: not significantly different from vehicle”. For the same compound, on CYP2C9, the IC50 was greater than 50 µM.

Consider `CCCN(CC)CCc1c[nH]c2ccc(F)cc12` [Compound 3, N-ethyl-N-(2-(5-fluoro-1H-indol-3-yl)ethyl) propan-1-amine hydrochloride], for which the “Average HTR” value was found to be 12.5 with C57BL/6 mice [2] (0.1 mg/kg SC), 29.333 in the series with C57BL/6 mice [2] (1 mg/kg SC) and 26.333 in the series with C57BL/6 mice [2] (10 mg/kg SC). The “maximal effect in HTR” value in the series with C57BL/6 mice [2] is 29.33 head twitches/20 min. On CYP2C9, this compound showed an IC50 greater than 50 µM.

Turning to `CCN(C)CCc1c[nH]c2ccccc12` [Compound 2, methylethyltryptamine], the entries for the “Average HTR” value in the series on C57BL/6 mice [2] (1 mg/kg SC), in the series on C57BL/6 mice [2] (10 mg/kg SC) and in the series on C57BL/6 mice [2] (100 mg/kg SC) were 3.667, 2.500 and 0.500, respectively. Also, in the series with C57BL/6 mice [2], the “maximal effect in HTR” value worked out at 6.00 head twitches/20 min. This compound also registered an IC50 at CYP2C9 greater than 50 µM. Besides, the inhibition at 10 min, 10 µM at CYP2C9 stood at 0%.
